Data: ChEMBL document CHEMBL4627326, “Discovery of 4-hydroxy-2-oxo-1,2-dihydroquinolines as potential inhibitors of Streptococcus pneumoniae, including drug-resistant strains” (Bioorg Med Chem Lett, 2020)
In brackets after ≈: the same amount, converted by molar mass.

Key:
Streptococcus pneumoniae [1] = test: Antibacterial activity against Streptococcus pneumoniae ATCC 49617; assay type: functional, organism-based
Streptococcus pneumoniae [2] = test: Antibacterial activity against Streptococcus pneumoniae ATCC BAA1663; assay type: functional, organism-based
Streptococcus pneumoniae [3] = test: Antibacterial activity against Streptococcus pneumoniae ATCC 700904; assay type: functional, organism-based
[4] = Half life in rat at 2 mg/kg, iv; assay type: ADME, organism-based; conditions: in vivo
[5] = AUC in rat at 2 mg/kg, iv; assay type: ADME, organism-based; conditions: in vivo
[6] = Clearance in rat at 2 mg/kg, iv; assay type: ADME, organism-based; conditions: in vivo
[7] = Volume of distribution at steady state in rat at 2 mg/kg, iv; assay type: ADME, organism-based; conditions: in vivo, read-out: Vdss
[8] = Tmax in rat at 10 mg/kg, po; assay type: ADME, organism-based; conditions: in vivo
[9] = Cmax in rat at 10 mg/kg, po; assay type: ADME, organism-based; design: dose 10 mg/kg, route oral; conditions: in vivo
[10] = Half life in rat at 10 mg/kg, po; assay type: ADME, organism-based; conditions: in vivo
[11] = AUC in rat at 10 mg/kg, po; assay type: ADME, organism-based; conditions: in vivo
[12] = Oral bioavailability in rat at 10 mg/kg; assay type: ADME, organism-based; conditions: in vivo
[13] = Solubility of compound at 1 mg/ml incubated for 24 hrs by LC/MS analysis; assay type: physicochemical
[14] = Protein binding in rat plasma; assay type: ADME, cell-free; conditions: read-out: PPB (converted)
[15] = Protein binding in human plasma; assay type: ADME, cell-free; conditions: read-out: PPB (converted)
[16] = Streptococcus pneumoniae, ATCC 700904, read-out: IC50

Row | IC50 (Streptococcus pneumoniae [1]) [µM] | IC50 (Streptococcus pneumoniae [2]) [µM] | IC50 (Streptococcus pneumoniae [3]; [16]) [µM] | Compound | also measured
1 | 6.4 | 5.4 | 3.8 | CCn1c(=O)c(C(=O)Nc2nc3ccccc3[nH]2)c(O)c2ccccc21 | –
2 | > 20 | > 20 | > 20 | Cn1c(=O)c(C(=O)Nc2nccs2)c(O)c2ccccc21 | –
3 | > 20 | > 20 | > 20 | Cn1c(=O)c(C(=O)Nc2nc3ccccc3[nH]2)c(O)c2ccccc21 | –
4 | > 20 | 6.6 | 6.2 | CCn1c(=O)c(C(=O)Nc2nccs2)c(O)c2ccccc21 | –
5 | 0.27 | 1.03 | 0.62 | O=C(Nc1nc2ccc(Cl)cc2s1)c1c(O)c2cccc3c2n(c1=O)CC3 | solubility at 24 h [13]: 0.195 µg/mL (≈ 0.49 µM); fraction unbound [14]: 0.016; fraction unbound [15]: 0.006
6 | 3.6 | 8.8 | 7.9 | O=C(Nc1nc2ccccc2s1)c1c(O)c2cccc3c2n(c1=O)CC3 | –
7 | 13.1 | > 20 | > 20 | O=C(Nc1nc2ccc(Cl)cc2s1)c1c(O)c2ccccc2[nH]c1=O | –
8 | 4.9 | > 20 | > 20 | C=CCn1c(=O)c(C(=O)Nc2nc3ccccc3[nH]2)c(O)c2ccccc21 | –
9 | > 20 | > 20 | > 20 | O=C(Nc1nccs1)c1c(O)c2cccc3c2n(c1=O)CCC3 | –
10 | 5.9 | > 20 | > 20 | CCn1c(=O)c(C(=O)Nc2nc3ccc(Cl)cc3s2)c(O)c2ccccc21 | –

Continued, molecule first:

Row | Compound | IC50 (Streptococcus pneumoniae [1]) [µM] | IC50 (Streptococcus pneumoniae [2]) [µM] | IC50 (Streptococcus pneumoniae [3]; [16]) [µM] | also measured
11 | CCCCn1c(=O)c(C(=O)Nc2nc3ccc(Cl)cc3s2)c(O)c2ccccc21 | 1 | 0.66 | 0.38 | –
12 | C=CCn1c(=O)c(C(=O)Nc2nc3ccc(Cl)cc3s2)c(O)c2ccccc21 | > 20 | 3.1 | 3.1 | –
13 | CN[C@H](CC(C)C)C(=O)N[C@H]1C(=O)N[C@@H](CC(N)=O)C(=O)N[C@H]2C(=O)N[C@H]3C(=O)N[C@H](C(=O)N[C@H](C(=O)O)c4cc(O)cc(O)c4-c4cc3ccc4O)[C@H](O)c3ccc(c(Cl)c3)Oc3cc2cc(c3O[C@@H]2O[C@H](CO)[C@@H](O)[C@H](O)[C@H]2O[C@H]2C[C@](C)(N)[C@H](O)[C@H](C)O2)Oc2ccc(cc2Cl)[C@H]1O [VANCOMYCIN] | 0.15 to 0.18 | 0.13 to 0.19 | 0.12 to 0.19 | –
14 | CCCCn1c(=O)c(C(=O)Nc2nc3ccccc3[nH]2)c(O)c2ccccc21 | 0.92 | 1.8 | 0.8 | half-life [4]: 18.8 h; AUC [5]: 6.99 µg·h/mL; clearance [6]: 0.18 L/h/kg; Vd [7]: 4.76 L/kg; Tmax [8]: 6 h; Cmax [9]: 1.2 µg/mL; half-life [10]: 4 h; AUC [11]: 12.4 µg·h/mL; bioavailability [12]: 35%
15 | O=C(Nc1nc2ccccc2[nH]1)c1c(O)c2cccc3c2n(c1=O)CC3 | 2 | 2.1 | 3.3 | half-life [4]: 7.7 h; AUC [5]: 25.7 µg·h/mL; clearance [6]: 0.07 L/h/kg; Vd [7]: 0.84 L/kg; Tmax [8]: 2.7 h; Cmax [9]: 2.7 µg/mL; half-life [10]: 7.2 h; AUC [11]: 21.4 µg·h/mL; bioavailability [12]: 17%
16 | O=C(Nc1nc2ccccc2[nH]1)c1c(O)c2cccc3c2n(c1=O)CCC3 | 6.5 | 5.2 | 6.4 | –
17 | CCCCn1c(=O)c(C(=O)Nc2nccs2)c(O)c2ccccc21 | 0.57 | 0.75 | 0.77 | –
18 | C=CCn1c(=O)c(C(=O)Nc2nccs2)c(O)c2ccccc21 | 4.1 | 4.5 | 4.2 | –
19 | CC[C@H]1OC(=O)[C@H](C)[C@@H](O[C@H]2C[C@@](C)(OC)[C@@H](O)[C@H](C)O2)[C@H](C)[C@@H](O[C@@H]2O[C@H](C)C[C@H](N(C)C)[C@H]2O)[C@](C)(O)C[C@@H](C)C(=O)[C@H](C)[C@@H](O)[C@]1(C)O [ERYTHROMYCIN] | 0.051 to 0.1 | 0.037 to 0.08 | – | IC50 (Streptococcus pneumoniae [3]): Not Active
20 | O=C(Nc1nccs1)c1c(O)c2cccc3c2n(c1=O)CC3 | 17.6 | 16 | > 20 | –
21 | O=C(Nc1nc2ccc(Cl)cc2s1)c1c(O)c2cccc3c2n(c1=O)CCC3 | > 20 | > 20 | > 20 | –
22 | Cc1nnc(NC(=O)c2c(O)c3cccc4c3n(c2=O)CC4)s1 | 2.2 | 2.7 | 1.7 | –
